From paper PMC10208040, “Computational docking and in vitro analysis identifies novel arylidene analogue FPMXY-14 against renal cancer cells by attenuating Akt” (Oncology Research, 2021)

Target: T1, Akt
T1 construct: gene AKT1
Assay: Z'-LYTE fluorescence-based coupled-enzyme kinase assay
Format: biochemical

IC50: 148 nM
Structure (SMILES): Cc1ccc(C)c2c1CC(=Cc1ccc(C(C)C)cc1)C2=O [FPMXY-14, 2-(4-isopropyl-benzylidene)-4,7-dimethyl-indan-1-one]
